Read-outs that look alike come from different tables or passages of the source.
What was measured:
Rhizoctonia solani = test: Ex vivo mycelial growth, growth rate method; type: cell-based; conditions: 1 mg/mL; for inhibition at 1000 µg/mL: mycelial growth
Phytophthora infestans [1] = type: cell-based; conditions: Phytophthora infestans (first line); 1 mg/mL
Valsa mali = test: Ex vivo mycelial growth, growth rate method; type: cell-based; conditions: 1 mg/mL; for inhibition at 1000 µg/mL: Cytospora mali, mycelial growth
Phytophthora capsici = test: Ex vivo mycelial growth, growth rate method; type: cell-based; conditions: for antifungal activity on Phytophthora capsici compared with hymexazol: supplementary determination results
Fusarium graminearum = test: microbe, parasite or virus in culture; type: cell-based; conditions: for Average Diameter of the Colony: Fusarium graminearum (first line), 1 mg/mL; for inhibition at 1000 µg/mL: Fusarium graminearum, read-out: Inhibition Rate
Mycosphaerlla melonis = test: Ex vivo mycelial growth, growth rate method; type: cell-based; conditions: 1 mg/mL
Pythium aphanidermatum = test: Ex vivo mycelial growth, growth rate method; type: cell-based; conditions: 1 mg/mL; for inhibition at 1000 µg/mL: mycelial growth
Colletotrichum capsici = test: Ex vivo mycelial growth, growth rate method; type: cell-based; conditions: 1 mg/mL; for inhibition at 1000 µg/mL: Colletotrichum truncatum, mycelial growth
[2] = system: Botryosphaeriana berengeriana; test: Ex vivo mycelial growth, growth rate method (line 'Botryosphaeriana berengeriana', r23); type: cell-based; conditions: Botryosphaeriana berengeriana (first line), 1 mg/mL; for inhibition at 1000 µg/mL: mycelial growth
Coniella diplodiella = test: Ex vivo mycelial growth, growth rate method; type: cell-based; conditions: 1 mg/mL; for inhibition at 1000 µg/mL: mycelial growth
[3] = system: F. oxysporum f. sp. vasinfectum; test: Ex vivo mycelial growth, growth rate method; type: cell-based; conditions: 1 mg/mL; for inhibition at 1000 µg/mL: Fusarium oxysporum
[4] = system: Gaeumannomyces graminis var. graminis and G. graminis var. tritici; test: Ex vivo mycelial growth, growth rate method; type: cell-based; conditions: 1 mg/mL; for inhibition at 1000 µg/mL: mycelial growth
[5] = system: Botryosphaeria berengeriana; test: Ex vivo mycelial growth, growth rate method (line 'Botryosphaeria berengeriana', r34); type: cell-based; conditions: Botryosphaeria berengeriana (second line), 1 mg/mL; for inhibition at 1000 µg/mL: mycelial growth
C. gossypii = test: Ex vivo mycelial growth, growth rate method; type: cell-based; conditions: 1 mg/mL; for inhibition at 1000 µg/mL: Colletotrichum gossypii
F. graminearum = test: microbe, parasite or virus in culture; type: cell-based; conditions: for inhibition at 1000 µg/mL: Fusarium graminearum, read-out: Inhibition Rate
Thanatephorus cucumeris = test: Ex vivo mycelial growth, growth rate method; type: cell-based; conditions: 1 mg/mL; for inhibition at 1000 µg/mL: mycelial growth
Botrytis cinerea = test: Ex vivo mycelial growth, growth rate method; type: cell-based; conditions: 1 mg/mL
Exserohilum turcicum = test: Ex vivo mycelial growth, growth rate method; type: cell-based; conditions: 1 mg/mL
F. verticillioide = test: Ex vivo mycelial growth, growth rate method; type: cell-based; conditions: 1 mg/mL; for inhibition at 1000 µg/mL: mycelial growth
Sclerotinia sclerotiorum = test: Ex vivo mycelial growth, growth rate method; type: cell-based; conditions: 1 mg/mL
Pyricularia grisea = test: microbe, parasite or virus in culture; type: cell-based; conditions: for inhibition at 1000 µg/mL: read-out: Inhibition Rate
Phytophthora infestans [6] = type: cell-based; conditions: Phytophthora infestans (second line), 1 mg/mL
F. oxysporum f. sp. lini = test: Ex vivo mycelial growth, growth rate method; type: cell-based; conditions: 1 mg/mL; for inhibition at 1000 µg/mL: Fusarium oxysporum
plant pathogenic fungi = test: organism not typed; type: cell-based
[7] = system: Blumeria graminis f. sp. trilici; test: In-vivo control of wheat powdery mildew in a greenhouse; design: species or system Blumeria graminis f. sp. trilici on winter wheat
zucchini powdery mildew = test: Field efficiency test on zucchini powdery mildew; type: in vivo; conditions: 0.50 mg/mL
E. cichoracearum = test: Field efficiency test on cucumber powdery mildew; conditions: 0.50 mg/mL (active ingredients)
Method: The first application was started on Jun. 15, 2018, and E. cichoracearum was inoculated on June 17th (the diseased leaves were harvested from the solar greenhouse near the military airfield at Xiaguanying town, Yuzhong County, moisturized in the greenhouse for 2 days, then shredded, and filtered over a gauze, the filtrate was sprayed onto both sides of the cucumber leaves with the cone nozzle of an electric sprayer for inoculation). The second, third and fourth applications were conducted on June 23rd, July 2nd, and July 9th respectively, the water consumptions of which were adjusted promptly according to the amount of water desired for spraying evenly onto both sides of the control leaves. 10 days after the fourth application, the number of disease leaves at each grade of powdery mildew was investigated following the grading standard of 9 grades, to calculate the disease index and the control effect.

Pythium ultimum = test: Supplementary determination of antifungal activity; conditions: supplementary determination results
Method: (3) Ex Vivo Bioassay Method • The inhibition of samples for testing on the mycelial growth of plant pathogenic fungi for testing is determined with a growth rate method. […] Fungal cakes with a diameter of 4 mm are taken from the edge of the colony, inoculated into the center of a PDA plate containing different agents of different concentrations and the DMSO control, with one piece of fungal cake inoculated in each plate (with a diameter of 9 mm), and incubated in a constant temperature incubator at a temperature of 22±1.5° C. 7 days later (10˜20 days may be needed for some pathogenic fungi), the diameter of the colony is measured with a cross over method according to the mycelial growth profile of the control pathogenic fungi, then the inhibition rate of mycelial growth is calculated. The computational formula is as below: the inhibition rate of mycelial growth (%)=[(the diameter of the control colony−the diameter of the treated colony)/the diameter of the control colony]×100.

[8] = system: Erysiphe cucurbitacearum or Sphaerotheca cucurbitae; test: In-vivo control of zucchini powdery mildew in a greenhouse
Method: (2) In-Vivo Determination Method • Zucchini (Variety: Wuwei Xianglin extra-early 1st generation) were cultured in pots in a greenhouse, and inoculated with Erysiphe cucurbitacearum or Sphaerotheca cucurbitae at the stage of 3 to 4 leaves. […] Both sides of the leaves were sprayed evenly with a small hand-held sprayer so that the leaves were wetted by the liquor without loss. Applications were conducted every 7 days consecutively for 4 times. 10 days after the fourth application, the number of disease leaves at each grade of powdery mildew was investigated for the whole plant following the grading standard of 9 grades, to calculate the disease index and the control effect. The computational formula is as below: Disease index=[(Number of disease leaves at each grade×Corresponding grade value)/(Total number of investigated leaves×9)]×100; Control effect=(Disease index of the clear water control−Treated disease index)/Disease index of the clear water control×100.

E. polygoni = test: In-vivo control of marrow bean powdery mildew in a greenhouse
Method: (2) In-Vivo Determination Method • Marrow bean (Variety: Thailand Jiadouwang) were cultured in pots in a greenhouse, and inoculated with E. polygoni at the stage of 4 leaves. […] Both sides of the leaves were sprayed evenly with a small hand-held sprayer so that the leaves were wetted by the liquor without loss. Applications were conducted every 7 days consecutively for 4 times. 10 days after the fourth application, the number of disease leaves at each grade of powdery mildew was investigated for the whole plant following the grading standard of 9 grades, to calculate the disease index and the control effect.

[9] = system: damping-off (P. aphanidermatum, P capsici); test: In-vivo control of pepper damping-off in a greenhouse (sick soil); conditions: 0.80 mg/mL, 200 mL liquor per pot
Method: (§1) (2) In-Vivo Determination Method • Sick soil of damping-off (P. aphanidermatum, P capsici) was collected from the fields of tomatoes, eggplants and peppers in solar greenhouse, and mixed evenly in equal proportion. Tomatoes (Variety: Song Tian Fen Yang Yang, 100 grains), eggplants (Variety: Lanza No. 2 F1 long eggplant, 100 grains), pepper (Longjiao 2 F1, 100 grains) were seeded quantitatively with the sick soil in pots (diameter: 15 cm) in a greenhouse, additionally with sterile vermiculite as the control (each 100 grains for determining the germination rate). […] The computational formula is as below: Mortality of Seedlings (%)=[number of survival seedlings in the seeded grains−number of seeded grains×(100%−germination rate)]/number of seeded grains×100; Control Effect (%)=(mortality of control seedlings−mortality of treated seedlings)/mortality of control seedlings×100.

[10] = system: damping-off (P. aphanidermatum, P capsici); test: In-vivo control of eggplant damping-off in a greenhouse (sick soil); conditions: 0.80 mg/mL, 200 mL liquor per pot
Method: as §1

[11] = mycelial growth, Phytophthora capsici, 1 mg/mL
[12] = F. graminearum (second line), 1 mg/mL

CCOC(=O)/C=C/c1ccc(OC)c(OC)c1 [ethyl 3-(3′,4′-dimethoxyphenyl) acrylate]
Average Diameter of the Colony (Rhizoctonia solani): 0.00 cm | inhibition at 1000 µg/mL (Rhizoctonia solani): 100% | Average Diameter of the Colony (Phytophthora infestans [1]): 1.33 cm | Average Diameter of the Colony (Valsa mali): 0.00 cm | inhibition at 1000 µg/mL (Valsa mali): 100% | Average Diameter of the Colony (Phytophthora capsici; Phytophthora capsici, 1 mg/mL): 0.75 cm | inhibition at 1000 µg/mL (Phytophthora capsici; [11]): 85.8% | antifungal activity on Phytophthora capsici compared with hymexazol (Phytophthora capsici): superior to that of the control agent, hymexazol | Average Diameter of the Colony (Fusarium graminearum): 1.40 cm | inhibition at 1000 µg/mL (Fusarium graminearum): 73.8% | Average Diameter of the Colony (Mycosphaerlla melonis): 0.05 cm | inhibition at 1000 µg/mL (Mycosphaerlla melonis; mycelial growth): 99.4% | Average Diameter of the Colony (Pythium aphanidermatum): 0.73 cm | inhibition at 1000 µg/mL (Pythium aphanidermatum): 89.1% | Average Diameter of the Colony (Colletotrichum capsici): 0.83 cm | inhibition at 1000 µg/mL (Colletotrichum capsici): 87.8% | Average Diameter of the Colony [2]: 1.58 cm | inhibition at 1000 µg/mL [2]: 72.3% | Average Diameter of the Colony (Coniella diplodiella): 0.00 cm | inhibition at 1000 µg/mL (Coniella diplodiella): 100% | Average Diameter of the Colony [3]: 2.68 cm | inhibition at 1000 µg/mL ([3]; mycelial growth): 63% | Average Diameter of the Colony [4]: 2.56 cm | inhibition at 1000 µg/mL [4]: 64.2% | Average Diameter of the Colony [5]: 2.95 cm | inhibition at 1000 µg/mL [5]: 56.6% | Average Diameter of the Colony (C. gossypii): 1.33 cm | inhibition at 1000 µg/mL (C. gossypii; mycelial growth): 75.4% | Average Diameter of the Colony (F. graminearum; [12]): 2.74 cm | inhibition at 1000 µg/mL (F. graminearum): 68.1% | Average Diameter of the Colony (Thanatephorus cucumeris): 0.94 cm | inhibition at 1000 µg/mL (Thanatephorus cucumeris): 89.1% | Average Diameter of the Colony (Botrytis cinerea): 0.61 cm | inhibition at 1000 µg/mL (Botrytis cinerea; mycelial growth): 91.9% | Average Diameter of the Colony (Exserohilum turcicum): 0.56 cm | inhibition at 1000 µg/mL (Exserohilum turcicum; mycelial growth): 91% | Average Diameter of the Colony (F. verticillioide): 2.28 cm | inhibition at 1000 µg/mL (F. verticillioide): 32.5% | Average Diameter of the Colony (Sclerotinia sclerotiorum): 1.34 cm | inhibition at 1000 µg/mL (Sclerotinia sclerotiorum; mycelial growth): 84.4% | Average Diameter of the Colony (Pyricularia grisea; 1 mg/mL): 5.47 cm | inhibition at 1000 µg/mL (Pyricularia grisea): 39.2% | Average Diameter of the Colony (Phytophthora infestans [6]): 0.00 cm | Average Diameter of the Colony (F. oxysporum f. sp. lini): 6.17 cm | inhibition at 1000 µg/mL (F. oxysporum f. sp. lini; mycelial growth): 31.4% | inhibition at 1000 µg/mL (plant pathogenic fungi; read-out: inhibition rate on mycelial growth, range over 12 fungi): 84.4 to 100% | Control Effect ([7]; 0.143 mg/mL): 79.47% | Control Effect ([7]; 0.20 mg/mL): 91.55% | Control Effect (zucchini powdery mildew): 91.93% | control effect on cucumber powdery mildew (E. cichoracearum): 85.18% | antifungal activity on Pythium ultimum compared with carbendazim (Pythium ultimum): superior to that of the control agent, carbendazim | Control Effect ([8]; 0.20 mg/mL): 81.83% | Control Effect ([8]; 0.333 mg/mL): 95.52% | Control Effect ([8]; 0.50 mg/mL): 98.63% | Control Effect (E. polygoni; 0.10 mg/mL): 83.69% | Control Effect (E. polygoni; 0.143 mg/mL): 97.09% | Control Effect (E. polygoni; 0.20 mg/mL): 100% | control effect on pepper damping-off [9]: 64.57% | control effect on eggplant damping-off [10]: 48.71%

CCOC(=O)/C=C/c1ccc2c(c1)OCO2
Average Diameter of the Colony (Rhizoctonia solani): 0.80 cm | inhibition at 1000 µg/mL (Rhizoctonia solani): 88.8% | Average Diameter of the Colony (Phytophthora infestans [1]): 2.01 cm | Average Diameter of the Colony (Valsa mali): 0.00 cm | inhibition at 1000 µg/mL (Valsa mali): 100% | Average Diameter of the Colony (Phytophthora capsici; Phytophthora capsici, 1 mg/mL): 1.42 cm | inhibition at 1000 µg/mL (Phytophthora capsici; [11]): 73.2% | antifungal activity on Phytophthora capsici compared with hymexazol (Phytophthora capsici): superior to that of the control agent, hymexazol | Average Diameter of the Colony (Fusarium graminearum): 3.00 cm | inhibition at 1000 µg/mL (Fusarium graminearum): 43.9% | Average Diameter of the Colony (Mycosphaerlla melonis): 0.75 cm | inhibition at 1000 µg/mL (Mycosphaerlla melonis; mycelial growth): 91.3% | Average Diameter of the Colony (Pythium aphanidermatum): 2.60 cm | inhibition at 1000 µg/mL (Pythium aphanidermatum): 61.2% | Average Diameter of the Colony (Colletotrichum capsici): 1.49 cm | inhibition at 1000 µg/mL (Colletotrichum capsici): 78% | Average Diameter of the Colony [2]: 4.20 cm | inhibition at 1000 µg/mL [2]: 26.3% | Average Diameter of the Colony (Coniella diplodiella): 0.00 cm | inhibition at 1000 µg/mL (Coniella diplodiella): 100% | Average Diameter of the Colony [3]: 2.58 cm | inhibition at 1000 µg/mL ([3]; mycelial growth): 64.4% | Average Diameter of the Colony [4]: 2.45 cm | inhibition at 1000 µg/mL [4]: 65.7% | Average Diameter of the Colony [5]: 3.45 cm | inhibition at 1000 µg/mL [5]: 49.3% | Average Diameter of the Colony (C. gossypii): 1.74 cm | inhibition at 1000 µg/mL (C. gossypii; mycelial growth): 67.8% | Average Diameter of the Colony (F. graminearum; [12]): 1.73 cm | inhibition at 1000 µg/mL (F. graminearum): 79.9% | Average Diameter of the Colony (Thanatephorus cucumeris): 3.75 cm | inhibition at 1000 µg/mL (Thanatephorus cucumeris): 56.4% | Average Diameter of the Colony (Botrytis cinerea): 2.17 cm | inhibition at 1000 µg/mL (Botrytis cinerea; mycelial growth): 71% | Average Diameter of the Colony (Exserohilum turcicum): 1.52 cm | inhibition at 1000 µg/mL (Exserohilum turcicum; mycelial growth): 75.5% | Average Diameter of the Colony (F. verticillioide): 2.91 cm | inhibition at 1000 µg/mL (F. verticillioide): 13.9% | Average Diameter of the Colony (Sclerotinia sclerotiorum): 4.71 cm | inhibition at 1000 µg/mL (Sclerotinia sclerotiorum; mycelial growth): 45.2% | Average Diameter of the Colony (Pyricularia grisea; 1 mg/mL): 2.70 cm | inhibition at 1000 µg/mL (Pyricularia grisea): 25.6% | Average Diameter of the Colony (Phytophthora infestans [6]): 0.00 cm | Average Diameter of the Colony (F. oxysporum f. sp. lini): 6.97 cm | inhibition at 1000 µg/mL (F. oxysporum f. sp. lini; mycelial growth): 22.6% | inhibition at 1000 µg/mL (plant pathogenic fungi; read-out: inhibition rate on mycelial growth, range over 5 fungi): 88.8 to 100% | Control Effect ([7]; 0.143 mg/mL): 74.28% | Control Effect ([7]; 0.20 mg/mL): 77.65% | Control Effect (zucchini powdery mildew): 85.56% | control effect on cucumber powdery mildew (E. cichoracearum): 80.95% | Control Effect ([8]; 0.20 mg/mL): 77.06% | Control Effect ([8]; 0.333 mg/mL): 96.21% | Control Effect ([8]; 0.50 mg/mL): 97.93% | Control Effect (E. polygoni; 0.10 mg/mL): 75.92% | Control Effect (E. polygoni; 0.143 mg/mL): 95.20% | Control Effect (E. polygoni; 0.20 mg/mL): 95.49% | control effect on pepper damping-off [9]: 52% | control effect on eggplant damping-off [10]: 53.63%

CO/C=C(/C(=O)OC)c1ccccc1Oc1cc(Oc2ccccc2C#N)ncn1 [Azoxystrobin, azoxystrobin, reference compound]
Inhibition Rate (Phytophthora capsici; [11]): 25.55% | Inhibition Rate (Mycosphaerlla melonis; mycelial growth): 56.33% | Inhibition Rate ([3]; mycelial growth): 66.33% | Inhibition Rate (C. gossypii; mycelial growth): 40.33% | Inhibition Rate (F. graminearum; mycelial growth, F. graminearum (second line), 1 mg/mL): 30.78% | Inhibition Rate (Botrytis cinerea; mycelial growth): 51.89% | Inhibition Rate (Exserohilum turcicum; mycelial growth): 27.78% | Inhibition Rate (Sclerotinia sclerotiorum; mycelial growth): 51.11% | Inhibition Rate (Pyricularia grisea; mycelial growth, 1 mg/mL): 48.11% | Inhibition Rate (Phytophthora infestans [6]; mycelial growth): 100% | Inhibition Rate (F. oxysporum f. sp. lini; mycelial growth): 34.11%

Source: patent US11533912B2, “Use of cinnamate compounds in the control of fungal diseases of crops” (Institute of Plant Protection, Gansu Academy of …, priority 2019, dated 2022)
